# Assay results as given in US11535630B2, “Apelin receptor (APJ) agonists and uses thereof” (Research Triangle Institute, priority 2015, dated 2022).
# Where a name gives a salt, the structure may show the parent alone.
# Molecular target: T1, apelin receptor (APJ) (Homo sapiens, UniProt P35414)
# T1 sequence (P35414 1-380): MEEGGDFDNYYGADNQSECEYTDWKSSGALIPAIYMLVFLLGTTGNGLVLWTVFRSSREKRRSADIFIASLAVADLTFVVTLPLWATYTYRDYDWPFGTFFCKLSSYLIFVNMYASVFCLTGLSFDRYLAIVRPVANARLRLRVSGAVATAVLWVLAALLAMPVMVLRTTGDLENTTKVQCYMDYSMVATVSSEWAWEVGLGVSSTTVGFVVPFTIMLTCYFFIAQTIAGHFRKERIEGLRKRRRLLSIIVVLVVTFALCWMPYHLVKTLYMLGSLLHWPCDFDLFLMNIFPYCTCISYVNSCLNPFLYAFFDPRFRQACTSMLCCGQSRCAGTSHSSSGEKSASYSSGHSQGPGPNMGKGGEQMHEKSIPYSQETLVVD
# Assay: In vitro apelin agonist activity (methods of Giddings et al., Apelin-13 as positive control)
# Format: cell-based
# Conditions: EC50 (nM) Ave, in vitro apelin agonist activity, methods of Giddings et al., Apelin-13 as positive control
# Description: Characterization of the Apelin Agonist Activity of the Compounds
# 1:39-47, the contents of which are hereby incorporated by reference in its entirety. Using the methods described in Giddings et al. and Apelin-13 as a positive control.
row,Compound,EC50
1,"COc1cccc(OC)c1-c1cc(C(=O)N[C@@H](CCC2CCCCC2)CC(=O)O)nn1C1CCCCCCC1 [compound 647, (3S)-5-cyclohexyl-3-{[1-cyclooctyl-5-(2,6-dimethoxyphenyl)-1H-pyrazol-3-yl]formamido}pentanoic acid]",> 10000 nM

# Same assay, conditions: in vitro apelin agonist activity, methods of Giddings et al., Apelin-13 as positive control; read-out: EC50 (nM) Ave
row,Compound,EC50
1,"O=C(N[C@@H](CCc1ccc(F)cc1)Cc1nnc[nH]1)c1cc(-c2ccccc2C(F)(F)F)n(C2CCCC2)n1 [compound 470, 1-cyclopentyl-N-[(2S)-4-(4-fluorophenyl)-1-(4H-1,2,4-triazol-3-yl)butan-2-yl]-5-[2-(trifluoromethyl)phenyl]-1H-pyrazole-3-carboxamide]",435 nM
2,"CC1(C)CC(=O)CN1CC[C@@H](CC(=O)O)NC(=O)c1cc(-c2ccccc2C(F)(F)F)n(C2CCCC2)n1 [compound 608, (3S)-3-({1-cyclopentyl-5-[2-(trifluoromethyl)phenyl]-1H-pyrazol-3-yl}formamido)-5-(2,2-dimethyl-4-oxopyrrolidin-1-yl)pentanoic acid]",1070 nM
3,"O=C(O)C[C@H](CCN1CCCC1)NC(=O)c1cc(-c2ccccc2C(F)(F)F)n(C2CCCC2)n1 [compound 499, (3S)-3-({1-cyclopentyl-5-[2-(trifluoromethyl)phenyl]-1H-pyrazol-3-yl}formamido)-5-(pyrrolidin-1-yl)pentanoic acid]",548 nM
4,"COc1cccc(OC)c1-c1cc(C(=O)N[C@@H](CCc2ccccc2)C(=O)O)nn1C1CCCC1 [compound 389, (2S)-2-{[1-cyclopentyl-5-(2,6-dimethoxyphenyl)-1H-pyrazol-3-yl]formamido}-4-phenylbutanoic acid]",> 10000 nM
5,O=C(O)C[C@H](CCN1CCCC(F)(F)C1)NC(=O)c1nc(-c2cccnc2C(F)(F)F)n(C2CCCC2)n1 [compound 525],> 10000 nM
6,"COc1cccc(OC)c1-c1cc(C(=O)N[C@@H](Cc2ccccc2)C(=O)NC2CCC2)nn1CC(C)C [compound 302, (2S)-N-cyclobutyl-2-{[5-(2,6-dimethoxyphenyl)-1-(2-methylpropyl)-1H-pyrazol-3-yl]formamido}-3-phenylpropanamide]",> 10000 nM
7,"O=C(O)C[C@H](CCNC1(C(F)(F)F)CCCC1)NC(=O)c1cc(-c2ccccc2C(F)(F)F)n(C2CCCC2)n1 [compound 615, (3S)-3-({1-cyclopentyl-5-[2-(trifluoromethyl)phenyl]-1H-pyrazol-3-yl}formamido)-5-{[1-(trifluoromethyl)cyclopentyl]amino}pentanoic acid trifluoroacetate]",353 nM
8,"COc1cccc(OC)c1-c1cc(C(=O)N[C@@H](CCN2CCN(C)CC2)CC(=O)OC(C)(C)C)nn1C1CCCC1 [compound 304, tert-butyl (3S)-3-{[1-cyclopentyl-5-(2,6-dimethoxyphenyl)-1H-pyrazol-3-yl]formamido}-5-(4-methylpiperazin-1-yl)pentanoate]",> 10000 nM
9,"O=C(O)C[C@H](CCC1CCCCC1)NC(=O)c1cc(-c2ccccc2C(F)(F)F)n(C2CCCC2)n1 [compound 484, (3S)-5-cyclohexyl-3-({1-cyclopentyl-5-[2-(trifluoromethyl)phenyl]-1H-pyrazol-3-yl}formamido)pentanoic acid]",1520 nM
10,"O=C(C[C@H](CCN1CCCC(F)(F)C1)NC(=O)c1cc(-c2cnccc2Cl)n(C2CCCC2)n1)NC1CCC1 [compound 466, (3S)-3-{[5-(4-chloropyridin-3-yl)-1-cyclopentyl-1H-pyrazol-3-yl]formamido}-N-cyclobutyl-5-(3,3-difluoropiperidin-1-yl)pentanamide]",1220 nM
11,"COc1cccc(OC)c1-c1cc(C(=O)N[C@@H](CCN2CCCCC2)CC(=O)NC2CCOCC2)nn1C1CCCC1 [compound 332, (3S)-3-{[1-cyclopentyl-5-(2,6-dimethoxyphenyl)-1H-pyrazol-3-yl]formamido}-N-(oxan-4-yl)-5-(piperidin-1-yl)pentanamide]",391 nM
12,"COc1cccc(OC)c1-c1cc(C(=O)N[C@@H](CCN2CCCCC2)Cc2nccs2)nn1C1CCCC1 [compound 448, 1-cyclopentyl-5-(2,6-dimethoxyphenyl)-N-[(2S)-4-(piperidin-1-yl)-1-(1,3-thiazol-2-yl)butan-2-yl]-1H-pyrazole-3-carboxamide]",1340 nM
13,"O=C(O)C[C@H](CCN1CC[C@@H](F)C1)NC(=O)c1cc(-c2ccccc2C(F)(F)F)n(C2CCCC2)n1 [compound 590, (3S)-3-({1-cyclopentyl-5-[2-(trifluoromethyl)phenyl]-1H-pyrazol-3-yl]formamido)-5-[(3R)-3-fluoropyrrolidin-1-yl]pentanoic acid]",1160 nM
14,"COc1cccc(OC)c1-c1cc(C(=O)N[C@@H](CCN2CCCC2)CC(=O)OC(C)(C)C)nn1C1CCCC1 [compound 316, tert-butyl (3S)-3-{[1-cyclopentyl-5-(2,6-dimethoxyphenyl)-1H-pyrazol-3-yl]formamido}-5-(pyrrolidin-1-yl)pentanoate]",> 10000 nM
15,"O=C(O)C[C@H](CCN1CC[C@H](F)C1)NC(=O)c1cc(-c2ccccc2C(F)(F)F)n(C2CCCC2)n1 [compound 585, (3S)-3-({1-cyclopentyl-5-[2-(trifluoromethyl)phenyl]-1H-pyrazol-3-yl}formamido)-5-[(3S)-3-fluoropyrrolidin-1-yl]pentanoic acid]",654 nM
16,"O=C(C[C@H](CCN1CCCCC1)NC(=O)c1cc(-c2cccs2)n(C2CCCC2)n1)NC1CCC1 [compound 362, (3S)-N-cyclobutyl-3-{[1-cyclopentyl-5-(thiophen-2-yl)-1H-pyrazol-3-yl]formamido}-5-(piperidin-1-yl)pentanamide]",5860 nM
17,"O=C(O)C[C@H](CCN1C2CCC1CC(F)(F)C2)NC(=O)c1cc(-c2ccccc2C(F)(F)F)n(C2CCCC2)n1 [compound 602, (3S)-3-({1-cyclopentyl-5-[2-(trifluoromethyl)phenyl]-1H-pyrazol-3-yl}formamido)-5-{3,3-difluoro-8-azabicyclo[3.2.1]octan-8-yl}pentanoic acid]",346 nM

# More lines, now with the values ahead:
row,EC50,Compound
1,78 nM,"O=C(O)C[C@H](CCN1CCC(C(F)(F)F)C1)NC(=O)c1cc(-c2ccccc2C(F)(F)F)n(C2CCCC2)n1 (stereo partly drawn) [compound 578, (3S)-3-({1-cyclopentyl-5-[2-(trifluoromethyl)phenyl]-1H-pyrazol-3-yl}formamido)-5-[3-(trifluoromethyl)pyrrolidin-1-yl]pentanoic acid]"
2,215 nM,"O=C(O)C[C@H](CCN1C[C@@H](F)[C@@H](F)C1)NC(=O)c1cc(-c2ccccc2C(F)(F)F)n(C2CCCC2)n1 [compound 581, (3S)-3-({1-cyclopentyl-5-[2-(trifluoromethyl)phenyl]-1H-pyrazol-3-yl}formamido)-5-[(3R,4S)-3,4-difluoropyrrolidin-1-yl]pentanoic acid]"
3,290 nM,"C#Cc1ccccc1-c1cc(C(=O)N[C@@H](CCN2CCCCC2)CC(=O)NC2CCC2)nn1C1CCCC1 [compound 438, (3S)-N-cyclobutyl-3-{[1-cyclopentyl-5-(2-ethynylphenyl)-1H-pyrazol-3-yl]formamido}-5-(piperidin-1-yl)pentanamide]"
4,5 nM,"CCc1ccccc1-c1cc(C(=O)N[C@@H](CCN2CCCC(F)(F)C2)CC(=O)NC2CCC2)nn1C1CCCC1 [compound 412, (3S)-N-cyclobutyl-3-{[1-cyclopentyl-5-(2-ethylphenyl)-1H-pyrazol-3-yl]formamido}-5-(3,3-difluoropiperidin-1-yl)pentanamide]"
5,157 nM,"Cc1cc(C)n(CC[C@@H](CC(=O)NC2CCC2)NC(=O)c2cc(-c3ccccc3C(F)(F)F)n(C3CCCC3)n2)n1 [compound 503, (3S)-N-cyclobutyl-3-({1-cyclopentyl-5-[2-(trifluoromethyl)phenyl]-1H-pyrazol-3-yl}formamido)-5-(3,5-dimethyl-1H-pyrazol-1-yl)pentanamide]"
6,91 nM,"C[C@H](C[C@@H](CC(=O)O)NC(=O)c1cc(-c2ccccc2C(F)(F)F)n(C2CCCC2)n1)N1CCCC(F)(F)C1 [compound 575, (3S,5R)-3-({1-cyclopentyl-5-[2-(trifluoromethyl)phenyl]-1H-pyrazol-3-yl}formamido)-5-(3,3-difluoropiperidin-1-yl)hexanoic acid]"
7,16 nM,"CC(F)(F)c1ccccc1-c1cc(C(=O)N[C@@H](CCN2CCC(F)(F)C2)CC(=O)O)nn1C1CCCC1 [compound 537, (3S)-3-({1-cyclopentyl-5-[2-(1,1-difluoroethyl)phenyl]-1H-pyrazol-3-yl}formamido)-5-(3,3-difluoropyrrolidin-1-yl)pentanoic acid]"
8,184 nM,"O=C(O)C[C@H](CCN1CCC[C@@H](F)C1)NC(=O)c1cc(-c2ccccc2C(F)(F)F)n(C2CCCC2)n1 [compound 584, (3S)-3-({1-cyclopentyl-5-[2-(trifluoromethyl)phenyl]-1H-pyrazol-3-yl}formamido)-5-[(3R)-3-fluoropiperidin-1-yl]pentanoic acid]"
9,14.5 nM,"CCc1ccccc1-c1cc(C(=O)N[C@@H](CCN2CCC(F)(F)CC2)CC(=O)NC2CCC2)nn1C1CCCC1 [compound 411, (3S)-N-cyclobutyl-3-{[1-cyclopentyl-5-(2-ethylphenyl)-1H-pyrazol-3-yl]formamido}-5-(4,4-difluoropiperidin-1-yl)pentanamide]"
10,35 nM,"CN(CC[C@@H](CC(=O)NC1CCC1)NC(=O)c1cc(-c2ccccc2C(F)(F)F)n(C2CCCC2)n1)C1(C)CCCC1 [compound 511, (3S)-N-cyclobutyl-3-({1-cyclopentyl-5-[2-(trifluoromethyl)phenyl]-1H-pyrazol-3-yl}formamido)-5-[methyl(1-methylcyclopentyl)amino]pentanamide]"
